The text below walks through data of US7115639B2, “Pyrrolidine oxadiazole- and thiadiazole oxime derivatives being oxytocin receptor antagonists” (Applied Research Systems ARS Holding N.V., priority 2001, dated 2006).

Data set [1] concerns oxytocin-induced uterine contractions in the rat. The data set is described as follows: In vivo model for inhibition of uterine contractions.
Data set [2] has the same test system. The data set is described as above. As for the experimental part:
d) In Vivo Model for Inhibition of Uterine Contractions
The assay intends to show the biological effect of tested compounds in an in vivo model of preterm labor, premature birth.
Non-pregnant Charles River CD(SD) BR female rats (9–10 weeks old, 200–250 g) were treated at 18 and 24 hours before the experiment with 250 μg/kg, i.p. diethylstilbestrol (DES). For the assay, the animal was anaesthetised by urethane (1.75 g/kg, i.p.) and placed on an homeothermic operating table. The trachea was isolated and cannulated with a suitable polyethylene (PE) tubing. A midline incision at the hypogastrium level was made and one uterine horn exposed, its cephalic end cannulated with a PE240 tubing and, after filling the internal cavity with 0.2 ml of sterile physiological saline, connected to a “Gemini” amplifying/recording system via a P231D Gould Statham pressure transducer, in, order to measure said pressure. For the i.v. route of administration of the test compounds, one jugular vein was isolated and cannulated with a PE60 tubing connected to a butterfly needle to allow the administration by a dispensing syringe. In the case of intraduodenal administration of the test compounds, the duodenum was isolated and similarly cannulated through a small incision in its wall. One carotid artery was also isolated and cannulated with PE60 catheter and connected to a suitable syringe for blood sample collection (see below). After a stabilization period, the same dose of oxytocin was repeatedly injected intravenously at 30-min intervals. […] Further injections of the same dose of oxytocin were then made for a suitable time after treatment to assess inhibitory effects of the compounds under study. The contractile response of the uterus to oxytocin was quantified by measuring the intrauterine pressure and the number of contractions.
A total of six animals is forming one group which is treated with a given test compound at a given concentration (see above).
The effect of the test compounds were evaluated by comparing pre- and post-treatment pressure values. In addition, at 2, 30, 90 and 210 minutes after test compound administration, a 0.5-ml blood sample was withdrawn from the cannulated carotid artery of each experimental animal. Plasma was obtained by standard laboratory procedure and the resulting samples were stored at −20° C.
The activities of the pyrrolidine derivatives claimed in the formula I were assessed using the above described in vivo biological assay. The values refer to the capacity of the example compound according to formula I to effectively antagonize oxytocin-induced uterine contractions in the rat.
This is another data set of the same source.

The target in data set [3] is T1, hOT receptor (Homo sapiens, UniProt P30559).
T1 construct: expressed in transfected cells; host or cells: HEK293EBNA
T1 sequence (P30559 1-389): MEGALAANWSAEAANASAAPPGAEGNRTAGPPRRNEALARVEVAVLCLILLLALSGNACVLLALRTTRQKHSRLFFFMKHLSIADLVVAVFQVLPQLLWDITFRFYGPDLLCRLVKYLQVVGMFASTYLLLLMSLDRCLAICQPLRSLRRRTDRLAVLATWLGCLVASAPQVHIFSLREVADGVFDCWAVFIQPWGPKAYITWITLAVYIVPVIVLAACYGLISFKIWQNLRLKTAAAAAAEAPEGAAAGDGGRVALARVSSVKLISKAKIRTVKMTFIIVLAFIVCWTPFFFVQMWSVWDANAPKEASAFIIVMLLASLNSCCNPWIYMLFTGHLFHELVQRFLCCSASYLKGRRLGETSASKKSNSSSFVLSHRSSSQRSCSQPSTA
The data set is described as follows: In vitro competition binding assay with scintillating proximity assay. The following applies: [125I]-OVTA competition; membranes from HEK293EBNA cells expressing the hOT receptor; read-out: Binding affinity human OT-R IC50. Here is the method: a) In Vitro Competition Binding Assay with Scintillating Proximity Assay (Pharmaceutical Manufacturing International, 1992, p. 49–53 by Cook, N. D. et al)
This assays allows to determine the affinity of the test compounds for the OT receptor. Membranes from HEK293EBNA cells expressing the hOT receptor were resuspended in buffer containing 50 mM Tris-HCl, pH 7.4, 5 mM MgCl2 and 0.1% BSA (w/v). The membranes (2–4 μg) were mixed with 0.1 mg wheat-germ aglutinin (WGA) SPA bead (type A) and 0.2 nM of the radiolabel [^125I]-OVTA (OVTA being Ornithin Vasoactive and is an analogue of OT for competition binding experiments). Non-specific binding was determined in the presence of 1 μM Oxytocin. The total assay volume was 100 μl. The plates (Corning® NBS plate) were incubated at room temperature for 30 min and counted on a Mibrobeta plate counter. The tests compounds were used in concentrations of 30 μM, 10 μM, 1 μM, 300 nM, 100 nM, 10 nM, 1 nM, 100 pM, 10 pM. The competition binding data were analysed using the iterative, non-linear, curve-fitting program, “Prism”.
The binding affinities to the oxytocin receptor of the pyrrolidine derivatives claimed in the formula I were assessed using the above described in vitro biological assay. The values refer to the binding affinity (IC50; μM) of the example compounds according to formula I to the Oxytocin receptor.

Data set [4] deals with T2, hOT-R (Homo sapiens, UniProt P30559).
T2 construct: expressed in transfected cells; host or cells: HEK (Human Embryonic Kidney) cells
T2 sequence (P30559 1-389): T1 sequence (P30559 1-389)
In words: Functional assay No. 1: inhibition of Ca2+-mobilization by FLIPR. The class given is cell-based. The following applies: HEK cells, OT 40 nM. The text has this:
b) Functional Assay No. 1: Inhibition of Ca^2+-mobilization by FLIPR (Fluorescent Imaging Plate Reader)
FLIPR is a machine for fluorescence imaging using a laser that is capable of illuminating a 96-well plate and a means of simultaneously reading each well thus enabling rapid measurements on a large number of samples.
This assay intends to show the inhibition of the OT/OT-R mediated calcium mobilisation—being necessary to cause uterine contractions—by using test compounds of formula (I).
Preparing the plates: FLIPR-plates were pre-coated with PLL (Poly-L-Lysine) 10 μg/ml+0.1% gelatine to attach the HEK (Human Embryonic Kidney) cells for 30 min up to 2 days at 37° C. The cells were plated out into 96-well plates (60000 cells/well).
Labelling with fluo-4: 50 μg fluo-4 (fluorescent marker) were dissolved in 20 μl pluronic acid (20% in DMSO). The dissolved fluo-4 was then diluted in 10 ml DMEM (Dubecco's Minimal Essential Medium-F12 medium without FCS (Fetal Calf Serum). The medium was removed from the plates, followed by one wash with DMEM-F12 medium. Now, 100 μl of the DMEM-F12 medium containing fluo-4 were added and the cells incubated for 1–1.5 h (CHO-cells), and 1.5–2 h (HEK-cells). The cells now contain the fluorescent marker.
Buffer: 145 mM NaCl, 5 mM KCl, 1 mM MgCl2, 10 mM Hepes, 10 mM Glucose, EGTA (Ethylene-bis oxyethylene nitrilo tetraacetic acid). Adjust to pH 7.4.
Performance of the assay: A minimum of 80 μl/well of antagonists (5×) in the above buffer (1×) were prepared (96-well plates). The antagonists were added to the well-plates at different concentrations (30 μM, 10 μM, 1 μM, 300 nM, 100 nM, 10 nM, 1 nM, 100 pM, 10 pM).
OT is added at a concentration of 40 nM.
The fluorescent market being sensitive to the amount of Ca^2+ mobilized within the cell may be quantified by the FLIPR machine.
The activities of the pyrrolidine derivatives according to formula I were assessed using the above described in vitro biological assay. The values refer to the capacity of the example compounds according to formula I to effectively antagonize oxytocin-induced intracellular Ca^2+-mobilization mediated by the Oxytocin receptor.

Regarding `CO/N=C1/C[C@@H](c2nc(CCO)no2)N(C(=O)c2ccc(-c3ccccc3)cc2)C1` [(3Z,5S)-1-([1,1′-biphenyl]-4-ylcarbonyl)-5-[3-(2-hydroxyethyl)-1,2,4-oxadiazol-5-yl]-3-pyrrolidinone O-methyloxime], the melting point (in general, the temperature, or range, at which the solid turns liquid) was determined as 141 °C. Also, in data set [1] (subcutaneous, NP3S, 5 ml/kg, 10 mg/kg), the “% Reduction of Uterine Contraction” value is reported as −39.7 ± 7.2%. For the same compound, the “% Reduction of Uterine Contraction” value in data set [2] (subcutaneous, NP3S, 5 ml/kg, 1 mg/kg) is recorded as −13.2 ± 5.6%. In addition, the “% Reduction of Uterine Contraction” value in data set [2] (subcutaneous, NP3S, 5 ml/kg, 3 mg/kg) is given as −30.2 ± 1.1%. Also, the “% Reduction of Uterine Contraction” value in data set [2] (subcutaneous, NP3S, 5 ml/kg, 30 mg/kg) is −57.5 ± 8.6%.

In the case of `CO/N=C1/C[C@@H](c2noc(CN(C)C)n2)N(C(=O)c2ccc(-c3ccccc3)cc2)C1` [(3Z,5S)-1-([1,1′-biphenyl]-4-ylcarbonyl)-5-{5-[(dimethylamino)methyl]-1,2,4-oxadiazol-3-yl}-3-pyrrolidinone O-methyloxime], the “% Reduction of Uterine Contraction” value is recorded as −11.1 ± 1.3% in data set [1] (oral, NP3S, 1 mg/kg); −42.1 ± 2.9% in data set [1] (oral, NP3S, 3 mg/kg); −49.5 ± 6.1% in data set [2] (oral, NP3S, 10 mg/kg); −74.4 ± 4.2% in data set [2] (oral, NP3S, 30 mg/kg).

In the case of `CO/N=C1/C[C@@H](c2nc(C)no2)N(C(=O)c2ccc(-c3ccccc3C)cc2)C1` [(3Z,5S)-1-[(2′-methyl[1,1′-biphenyl]-4-yl)carbonyl]-5-(3-methyl-1,2,4-oxadiazol-5-yl)-3-pyrrolidinone O-methyloxime], the “% Reduction of Uterine Contraction” value in data set [1] (Intravenous, NP3S 5 ml/kg infusion, 3 mg/kg) is listed as −58.0 ±5.9%; in data set [1] (Intravenous, NP3S, 7.5 ml/kg infusion, 30 mg/kg), −80.3 ± 5.1%; in data set [2] (Intravenous, NP3S 5 ml/kg infusion, 0.3 mg/kg), −21.5 ± 7.3%; in data set [2] (Intravenous, NP3S 5 ml/kg infusion, 1 mg/kg) it was −44.6 ± 7.1%; in data set [2] (Intravenous, NP3S 5 ml/kg infusion, 10 mg/kg) it was −67.2 ± 10.1%. Moreover, the values for the IC50 in data set [3] and in data set [4] were 9 nM and 4 nM, respectively.

`CO/N=C1\C[C@@H](c2nc(CCO)no2)N(C(=O)c2ccc(-c3ccccc3)cc2)C1` [Example 9 (3E), (3E,5S)-1-([1,1′-biphenyl]-4-ylcarbonyl)-5-[3-(2-hydroxyethyl)-1,2,4-oxadiazol-5-yl]-3-pyrrolidinone O-methyloxime] had a melting point of 140.5 °C.
